Here are results for 5 compounds from article PMC6345859, “Copper amine oxidases catalyze the oxidative deamination and hydrolysis of cyclic imines” (Nature Communications, 2019).

Where a chain is given by its changes, count along the chain named.

The target of series [1] is T1, HarA (harmaline-metabolizing enzyme, copper amine oxidase) (Arthrobacter sp., UniProt A0A5A4PV14, D295E).
T1 construct: purified from strain C-4A, or recombinant from E. coli BL21-CodonPlus(DE3)-RIL (pETDuet-harA); 71 kDa subunit, 130 kDa native, homodimer; TPQ cofactor from Y379, Cu2+
T1 sequence (A0A5A4PV14 1-649 D295E): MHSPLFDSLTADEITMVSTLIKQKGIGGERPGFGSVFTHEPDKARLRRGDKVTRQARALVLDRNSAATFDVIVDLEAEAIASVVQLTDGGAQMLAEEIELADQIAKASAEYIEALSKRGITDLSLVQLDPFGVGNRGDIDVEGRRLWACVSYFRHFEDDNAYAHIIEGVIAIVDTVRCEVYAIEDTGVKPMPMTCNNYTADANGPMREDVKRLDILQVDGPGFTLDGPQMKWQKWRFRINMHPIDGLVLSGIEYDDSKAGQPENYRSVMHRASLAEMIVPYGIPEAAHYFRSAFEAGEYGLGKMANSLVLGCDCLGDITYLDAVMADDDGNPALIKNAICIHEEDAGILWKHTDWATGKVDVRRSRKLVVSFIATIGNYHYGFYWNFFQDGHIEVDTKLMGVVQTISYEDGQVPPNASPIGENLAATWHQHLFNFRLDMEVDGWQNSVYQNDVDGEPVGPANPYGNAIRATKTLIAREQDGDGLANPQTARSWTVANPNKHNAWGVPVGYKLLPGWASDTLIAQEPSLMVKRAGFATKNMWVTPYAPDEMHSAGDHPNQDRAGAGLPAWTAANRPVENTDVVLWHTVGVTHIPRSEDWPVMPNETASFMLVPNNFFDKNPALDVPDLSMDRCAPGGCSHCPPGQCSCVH
The series can be described thus: LC/MS product detection. It is filed as biochemical. The following applies: […] Hepes-NaOH pH […] °C.

For series [2], the target named is T2, HarA (harmaline-metabolizing enzyme, copper amine oxidase) (Arthrobacter sp., UniProt A0A5A4PV14).
T2 construct: purified from strain C-4A, or recombinant from E. coli BL21-CodonPlus(DE3)-RIL (pETDuet-harA); 71 kDa subunit, 130 kDa native, homodimer; TPQ cofactor from Y379, Cu2+
T2 sequence (A0A5A4PV14 1-649): T1 sequence (A0A5A4PV14 1-649 D295E) with E295D
Nature of the series: resonance Raman and anaerobic UV-vis spectroscopy. In kind it is binding. The following applies: covalent imine adduct with TPQ, difference against Y379F.

For series [3], the target named is T2, HarA (harmaline-metabolizing enzyme, copper amine oxidase). The series can be described thus: LC/MS/MS of chymotryptic nonapeptide; phenylhydrazine titration. It is filed as binding. The note with it: covalent; adduct with TPQ cofactor (Y379); […] Tris-HCl pH […] digest.
Series [4] relates to COc1ccc2c3c([nH]c2c1)C(C)=NCC3. Nature of the series: purified protein. The note with it: 20 mM Hepes-NaOH pH 7.0, 28 °C, O2 co-substrate.
A further series concerns C=C1CCCCN1. The series can be described thus: purified protein. The note with it: 20 mM Hepes-NaOH pH 7.0, 28 °C, O2 co-substrate, named as the enamine tautomer, treated in the paper as a cyclic imine.
The target in series [5] is T3, ECAO (copper amine oxidase from E. coli) (Escherichia coli, UniProt P46883).
T3 construct: gene tynA; recombinant, pET24a(+)-tynA in E. coli BL21-CodonPlus(DE3)-RIL, purified; TPQ cofactor
The series can be described thus: LC/MS or HPLC product detection. In kind it is biochemical. The following applies: 0.5 mg/mL enzyme.

T3 sequence (P46883 31-757): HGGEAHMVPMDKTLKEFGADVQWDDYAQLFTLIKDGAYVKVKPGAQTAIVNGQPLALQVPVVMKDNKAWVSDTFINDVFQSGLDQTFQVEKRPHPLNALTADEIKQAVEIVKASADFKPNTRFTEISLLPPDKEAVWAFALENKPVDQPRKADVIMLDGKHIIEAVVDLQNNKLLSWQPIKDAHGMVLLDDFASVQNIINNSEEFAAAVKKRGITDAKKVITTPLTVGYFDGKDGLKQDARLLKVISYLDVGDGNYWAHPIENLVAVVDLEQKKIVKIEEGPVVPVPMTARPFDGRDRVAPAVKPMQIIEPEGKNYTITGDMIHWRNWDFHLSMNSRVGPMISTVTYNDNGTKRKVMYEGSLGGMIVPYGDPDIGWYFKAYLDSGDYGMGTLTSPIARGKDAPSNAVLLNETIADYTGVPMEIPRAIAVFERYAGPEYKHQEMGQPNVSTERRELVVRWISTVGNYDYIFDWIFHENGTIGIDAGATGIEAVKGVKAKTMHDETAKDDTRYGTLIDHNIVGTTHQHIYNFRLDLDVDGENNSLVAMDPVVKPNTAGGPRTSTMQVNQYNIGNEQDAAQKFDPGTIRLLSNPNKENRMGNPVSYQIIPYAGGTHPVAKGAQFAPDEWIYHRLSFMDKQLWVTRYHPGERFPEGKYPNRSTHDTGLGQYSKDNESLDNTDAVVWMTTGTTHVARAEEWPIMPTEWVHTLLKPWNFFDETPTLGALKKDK

In the case of `NCCc1c[nH]c2ccccc12` [tryptamine], in series [1], the LC/MS product detection entry is on record as “D295E mutant catalyzed deamination of tryptamine, although the activity was less than that of wild-type”.

For `NCc1ccccc1` [BA, benzylamine], the “resonance Raman and anaerobic UV-vis spectroscopy” value in series [2] is “we observed a benzylamine adduct, which would be the inactive deprotonated imine intermediate, in HarA”.

Consider `NNc1ccccc1` [phenylhydrazine], for which the “LC/MS/MS of chymotryptic nonapeptide; phenylhydrazine titration” value in series [3] is “TPQ was also detected as a phenylhydrazine adduct in the nonapeptide”.

“HarA (harmaline-metabolizing enzyme, copper amine oxidase) (Arthrobacter sp.)”: the Michaelis-Menten constant (Km) (as a rule, the substrate concentration at which the rate is half of its maximum) stood at 0.439 mM in series [4] and 1.70 mM in the series with C=C1CCCCN1.

As for `COc1ccc2c3c([nH]c2c1)C(C)=NCC3` [harmaline], the “LC/MS or HPLC product detection” value in series [5] was “The purified ECAO was able to convert harmaline into 2-AIMA”.
